Assay results published in ChEMBL document CHEMBL1201862, “PubChem BioAssay data set” (2004).
Activity calls are given as the source filed them.

Assays:
[1] = molecular target: T1, Cytochrome P450 2C19 (Homo sapiens, UniProt P33261); assay: qHTS Assay for Inhibitors and Substrates of Cytochrome P450 2C19. [Related pubchem assays: 410 ]; format: ADME; conditions: read-out: Potency
[2] = molecular target: Bifunctional protein GlmU (Mycobacterium tuberculosis, UniProt P9WMN3); assay: Inhibitors of Mycobacterial Glucosamine-1-phosphate acetyl transferase (GlmU). Secondary screen.; design: species or system Mycobacterium tuberculosis H37Rv
Sequence of Bifunctional protein GlmU (P9WMN3 whole entry): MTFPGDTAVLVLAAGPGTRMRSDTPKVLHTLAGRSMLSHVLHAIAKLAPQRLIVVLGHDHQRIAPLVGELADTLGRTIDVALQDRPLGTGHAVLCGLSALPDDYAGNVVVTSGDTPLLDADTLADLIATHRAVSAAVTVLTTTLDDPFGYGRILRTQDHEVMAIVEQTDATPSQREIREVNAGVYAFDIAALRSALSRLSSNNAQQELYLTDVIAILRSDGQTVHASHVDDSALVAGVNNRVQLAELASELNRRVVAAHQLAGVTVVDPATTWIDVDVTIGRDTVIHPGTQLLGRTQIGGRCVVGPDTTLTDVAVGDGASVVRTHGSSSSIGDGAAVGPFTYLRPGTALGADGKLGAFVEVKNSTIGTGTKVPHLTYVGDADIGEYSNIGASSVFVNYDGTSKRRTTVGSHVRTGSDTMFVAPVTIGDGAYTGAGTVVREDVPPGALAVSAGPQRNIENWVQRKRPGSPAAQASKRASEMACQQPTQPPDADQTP

[3] = tested on: A-375; assay: MITF: Counter assay: A375 proliferation Measured in Cell-Based System Using Plate Reader - 2084-03_Inhibitor_Dose_DryPowder_Activity. [Related pubchem assays (depositor defined):AID488944]; format: functional; conditions: Homo sapiens
[4] = tested on: HeLa; assay: ATP-based viability loss in HeLa cells – cell-based, CellTiter-Glo luminescence, cherry-pick samples, cytotoxicity control for MITF activator project, dose response (AID 540259); format: functional; conditions: Homo sapiens
[5] = Luminescence Cell-Based Dose Response to Identify Activators of 5'UTR Stem-Loop Driven Prion Protein mRNA Translation in H4-C Neuroglioblastoma Cells. [Related pubchem assays: 1829 (Project Summary), 1814 (Primary HTS)]; format: functional
[6] = tested on: A-375; assay: proliferation inhibition in MITF-low A375 cells – cell-based, cherry-pick samples, set 2, counter-screen for MITF modulator project, dose response (AID 540335); format: functional; conditions: Homo sapiens
[7] = Luminescence Cell-Based Dose Response to Identify Activators of Luciferase Translation or Activity in H4-C Neuroglioblastoma Cells. [Related pubchem assays: 1829 (Project Summary), 1814 (Primary HTS)]; format: functional
[8] = Luminescence Cell-Based Dose Confirmation to Identify Activators of 5'UTR Stem-Loop Driven Alpha-Synuclein mRNA Translation in H4 Neuroglioblastoma Cells. [Related pubchem assays: 1829 (Project Summary), 1814 (Primary HTS)]; format: functional
[9] = Luminescence Cell-Based Dose Response HTS to Identify Activators of Luciferase Translation or Activity in H4 […] Cells. [Related pubchem assays: 1829 (Project Summary), 1814 (Primary HTS)]; format: functional
[10] = tested on: H4; assay: Luminescence Cell-Based Dose Response HTS to Identify Activators of 5'UTR Stem-Loop Driven Prion Protein mRNA Translation in H4 Neuroglioblastoma Cells. [Related pubchem assays: 1829 (Project Summary), 1814 (Primary HTS)]; format: functional; conditions: Homo sapiens
[11] = molecular target: Ubiquitin carboxyl-terminal hydrolase BAP1 (Homo sapiens, UniProt Q92560); assay: inhibition of BAP1 ubiquitin hydrolase activity – biochemical, dose response (AID 714); format: functional
Sequence of Ubiquitin carboxyl-terminal hydrolase BAP1 (Q92560 whole entry): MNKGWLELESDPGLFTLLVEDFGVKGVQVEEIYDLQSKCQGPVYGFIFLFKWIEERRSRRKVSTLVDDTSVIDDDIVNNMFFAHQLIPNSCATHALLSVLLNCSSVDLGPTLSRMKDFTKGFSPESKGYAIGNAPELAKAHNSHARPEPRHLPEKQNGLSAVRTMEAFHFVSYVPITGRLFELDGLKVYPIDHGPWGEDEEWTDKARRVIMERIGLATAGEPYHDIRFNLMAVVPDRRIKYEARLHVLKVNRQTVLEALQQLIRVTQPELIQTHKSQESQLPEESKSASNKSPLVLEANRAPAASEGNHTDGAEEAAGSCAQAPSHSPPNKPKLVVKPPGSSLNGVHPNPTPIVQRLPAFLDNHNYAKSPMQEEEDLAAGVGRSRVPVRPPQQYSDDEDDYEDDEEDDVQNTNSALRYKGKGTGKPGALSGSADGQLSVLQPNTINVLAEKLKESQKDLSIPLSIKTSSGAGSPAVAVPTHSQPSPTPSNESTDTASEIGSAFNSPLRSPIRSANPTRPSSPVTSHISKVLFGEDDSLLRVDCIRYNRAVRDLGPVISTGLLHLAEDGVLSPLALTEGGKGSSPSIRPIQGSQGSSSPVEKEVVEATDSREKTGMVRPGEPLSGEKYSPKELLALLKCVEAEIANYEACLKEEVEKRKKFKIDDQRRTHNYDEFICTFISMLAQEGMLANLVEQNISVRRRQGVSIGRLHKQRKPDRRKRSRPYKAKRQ

[12] = Luminescent dose response cell-based high throughput screening assay for inhibitors of the Janus kinase 2 mutant JAK2V617F. [Related pubchem assays: 1446 (Primary screen.), 1521 (Confirmation assay.), 1486 (Counter screen.)]; format: functional
[13] = molecular target: T2, Mannose-6-phosphate isomerase (Homo sapiens, UniProt P34949); assay: MPI inhibition at elevated mannose 6-phosphate – biochemical, fluorescence intensity, high mannose 6-phosphate, primary screen (AID 1220)
T2 sequence (P34949 whole entry): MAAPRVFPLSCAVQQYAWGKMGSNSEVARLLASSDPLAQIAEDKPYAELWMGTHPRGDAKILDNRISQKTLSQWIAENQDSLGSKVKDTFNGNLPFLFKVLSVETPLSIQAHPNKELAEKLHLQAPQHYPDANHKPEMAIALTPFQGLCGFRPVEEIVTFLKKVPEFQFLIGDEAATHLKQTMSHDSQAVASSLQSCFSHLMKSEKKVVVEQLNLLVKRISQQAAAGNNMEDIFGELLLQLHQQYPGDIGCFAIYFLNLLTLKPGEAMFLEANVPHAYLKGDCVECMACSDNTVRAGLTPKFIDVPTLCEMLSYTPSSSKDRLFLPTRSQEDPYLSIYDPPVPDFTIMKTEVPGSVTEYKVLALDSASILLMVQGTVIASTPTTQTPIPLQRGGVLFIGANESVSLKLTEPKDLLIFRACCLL

[14] = molecular target: T3, Heat shock factor protein 1 (Mus musculus, UniProt P38532); assay: decrease of HSF1-responsive luciferase luminescence – cell-based, NIH3T3, dose retest, confirmation (AID 2382); format: functional;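 note: NIH3T3 fibroblasts with HSF1-driven luciferase reporter stressed by proteasome inhibitor MG132; luminescence from HSF1-driven luciferase expression after 8 hours of MG132 stress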
T3 sequence (P38532 whole entry): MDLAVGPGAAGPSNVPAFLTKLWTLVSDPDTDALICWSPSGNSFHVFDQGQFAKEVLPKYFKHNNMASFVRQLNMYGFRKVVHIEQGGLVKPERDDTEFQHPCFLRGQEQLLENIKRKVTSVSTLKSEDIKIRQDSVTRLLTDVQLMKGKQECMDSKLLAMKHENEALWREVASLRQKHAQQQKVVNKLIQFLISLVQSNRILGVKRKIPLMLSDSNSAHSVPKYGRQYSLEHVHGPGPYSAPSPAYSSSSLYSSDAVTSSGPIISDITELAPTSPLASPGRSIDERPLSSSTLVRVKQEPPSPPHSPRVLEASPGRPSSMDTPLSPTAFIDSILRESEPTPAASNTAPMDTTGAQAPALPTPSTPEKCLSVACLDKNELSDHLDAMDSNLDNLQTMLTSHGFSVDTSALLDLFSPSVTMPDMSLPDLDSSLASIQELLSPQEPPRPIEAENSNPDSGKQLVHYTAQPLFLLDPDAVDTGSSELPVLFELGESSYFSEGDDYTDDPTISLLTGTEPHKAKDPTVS

[15] = molecular target: T1, Cytochrome P450 2C19; assay: Cytochrome panel assay with activity outcomes. Panel member name: p450-cyp2c19 Compounds with AC50 equal or less than 10 uM are considered active; format: functional
[16] = molecular target: T4, Replicative DNA helicase DnaB (Mycobacterium tuberculosis, UniProt P9WMR3); assay: DnaB intein splicing inhibitors, dose response, biochemical, cell-free fluorescence (AID 449749); format: functional
T4 sequence (P9WMR3 whole entry): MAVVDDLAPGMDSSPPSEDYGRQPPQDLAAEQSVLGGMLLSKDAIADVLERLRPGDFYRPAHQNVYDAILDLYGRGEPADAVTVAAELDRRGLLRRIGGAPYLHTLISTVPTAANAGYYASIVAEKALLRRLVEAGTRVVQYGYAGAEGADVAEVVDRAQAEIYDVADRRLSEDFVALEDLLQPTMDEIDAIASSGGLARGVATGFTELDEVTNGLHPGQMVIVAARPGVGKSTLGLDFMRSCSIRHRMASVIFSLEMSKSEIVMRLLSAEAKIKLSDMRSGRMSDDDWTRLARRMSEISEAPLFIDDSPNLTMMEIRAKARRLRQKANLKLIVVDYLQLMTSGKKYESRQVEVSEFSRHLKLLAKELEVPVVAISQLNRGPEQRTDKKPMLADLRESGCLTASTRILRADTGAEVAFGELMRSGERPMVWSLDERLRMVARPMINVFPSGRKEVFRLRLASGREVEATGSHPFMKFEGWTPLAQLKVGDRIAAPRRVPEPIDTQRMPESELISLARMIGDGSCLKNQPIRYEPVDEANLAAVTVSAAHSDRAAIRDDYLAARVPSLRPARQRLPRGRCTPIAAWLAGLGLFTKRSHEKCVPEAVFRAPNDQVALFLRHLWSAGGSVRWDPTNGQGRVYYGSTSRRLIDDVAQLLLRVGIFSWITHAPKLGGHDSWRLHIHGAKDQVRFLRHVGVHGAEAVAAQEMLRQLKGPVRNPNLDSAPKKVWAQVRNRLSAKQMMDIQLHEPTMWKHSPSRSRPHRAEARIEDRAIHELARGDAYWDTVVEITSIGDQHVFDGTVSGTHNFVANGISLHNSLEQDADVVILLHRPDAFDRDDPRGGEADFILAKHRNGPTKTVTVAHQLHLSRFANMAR

[17] = molecular target: T5, Protein RecA (Mycobacterium tuberculosis, UniProt P9WHJ3); assay: Fluorescence Cell-Free Homogeneous Dose Retest to Identify Inhibitors of RecA-Intein Splicing Activity. [Related pubchem assays (depositor defined):AID2097, AID2223, AID489010, AID492950]; format: functional
T5 sequence (P9WHJ3 whole entry): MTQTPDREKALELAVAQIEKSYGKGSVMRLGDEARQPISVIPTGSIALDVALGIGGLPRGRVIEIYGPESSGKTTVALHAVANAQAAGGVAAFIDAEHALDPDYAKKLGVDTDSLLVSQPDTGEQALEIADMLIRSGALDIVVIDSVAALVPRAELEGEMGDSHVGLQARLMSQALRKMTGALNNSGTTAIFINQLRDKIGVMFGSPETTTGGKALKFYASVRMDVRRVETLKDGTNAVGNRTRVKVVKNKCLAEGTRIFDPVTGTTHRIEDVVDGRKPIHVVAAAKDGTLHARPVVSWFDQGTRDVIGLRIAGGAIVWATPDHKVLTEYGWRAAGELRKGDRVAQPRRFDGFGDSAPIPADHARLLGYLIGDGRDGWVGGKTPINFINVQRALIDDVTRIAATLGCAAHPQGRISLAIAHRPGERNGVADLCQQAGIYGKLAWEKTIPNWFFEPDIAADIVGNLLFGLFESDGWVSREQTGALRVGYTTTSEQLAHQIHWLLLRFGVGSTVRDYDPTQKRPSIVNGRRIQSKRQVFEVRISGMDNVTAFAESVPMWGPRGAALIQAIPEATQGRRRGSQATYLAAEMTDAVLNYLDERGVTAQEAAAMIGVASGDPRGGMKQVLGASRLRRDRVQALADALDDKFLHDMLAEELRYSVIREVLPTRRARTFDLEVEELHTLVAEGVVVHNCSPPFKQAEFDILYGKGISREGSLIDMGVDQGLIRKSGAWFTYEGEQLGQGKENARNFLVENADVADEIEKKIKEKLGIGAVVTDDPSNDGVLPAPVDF

[18] = molecular target: T6, Glutathione-S-transferase (Schistosoma japonicum, UniProt Q26513); assay: GST-antibody interaction or FRET quenching – biochemical, TR-FRET, artefact control for Vif-APOBEC3G degradation inhibitor project, dose response (AID 1117362); format: functional
T6 sequence (Q26513 whole entry): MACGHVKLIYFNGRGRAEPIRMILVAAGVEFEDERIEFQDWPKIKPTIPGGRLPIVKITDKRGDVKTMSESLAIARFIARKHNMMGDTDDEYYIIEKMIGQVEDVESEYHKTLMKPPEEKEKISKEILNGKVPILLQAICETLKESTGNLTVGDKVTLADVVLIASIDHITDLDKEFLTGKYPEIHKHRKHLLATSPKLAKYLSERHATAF

[19] = viability loss in Vero cells – cytotoxicity control for Vif-APOBEC3G degradation inhibitor project, dose response (AID 1117358); format: functional; conditions: Vero
[20] = molecular target: T7, Estrogen receptor beta (Homo sapiens, UniProt Q92731); assay: blockers of SRC-3 recruitment to ERβ – biochemical, ELISA, streptavidin-HRP readout, orthogonal assay, confirmation (AID 1060)
T7 sequence (Q92731 whole entry): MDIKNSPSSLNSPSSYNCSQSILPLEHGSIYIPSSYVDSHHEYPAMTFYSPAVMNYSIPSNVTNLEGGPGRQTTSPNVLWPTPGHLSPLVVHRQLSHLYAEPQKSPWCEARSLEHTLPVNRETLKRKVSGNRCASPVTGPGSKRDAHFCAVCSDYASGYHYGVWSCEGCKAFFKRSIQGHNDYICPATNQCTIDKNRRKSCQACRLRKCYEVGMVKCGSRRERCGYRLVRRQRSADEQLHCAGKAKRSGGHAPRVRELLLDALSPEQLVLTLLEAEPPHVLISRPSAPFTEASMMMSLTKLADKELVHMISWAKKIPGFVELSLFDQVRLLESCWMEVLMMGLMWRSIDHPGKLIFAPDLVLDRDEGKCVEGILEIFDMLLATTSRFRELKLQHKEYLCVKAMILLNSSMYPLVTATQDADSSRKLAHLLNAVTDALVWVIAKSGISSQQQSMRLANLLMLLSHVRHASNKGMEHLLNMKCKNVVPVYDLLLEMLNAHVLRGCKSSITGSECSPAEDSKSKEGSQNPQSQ

[21] = molecular target: T7, Estrogen receptor beta
[22] = blockers of HIV-1 envelope-mediated cell-cell fusion – cherry-pick, dose response (AID 652057); format: functional, cell-based
[23] = molecular target: T3, Heat shock factor protein 1; assay: enhancement of HSF1-driven luciferase signal – cell-based, NIH3T3, luminescence, dose retest, confirmation (AID 435004); format: functional;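 note: stress induced by proteasome inhibitor MG132 added 30 min after compound; luciferase reporter driven by HSF1 response element in NIH3T3 cells; actives raise luminescence as potentiators of the MG132 stress response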
[24] = viability loss in CEM21 cells – cell-based, CellTiter-Glo luminescence, cherry-picked, cytotoxicity control for viral fusion inhibitor project, dose response (AID 652042); format: functional;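 note: potency for signal decrease meaning cytotoxicity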
[25] = blockers of HIV-1 ZM109 envelope-driven cell-cell fusion – HeLa effector, CEM target cells, luciferase, cherry-pick, dose response (AID 652058); format: functional, cell-based;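 note: luciferase signal from HIV-1 Env mediated cell-cell fusion of effector and target cells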
[26] = HIV-1 AD8 envelope cell-cell fusion blockers – cherry-pick, dose response (AID 652062); format: functional, cell-based;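 note: luciferase signal from cell-cell fusion driven by HIV-1 clade B AD8 Env; potency is for inhibitors of fusion seen as a drop in luminescence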
[27] = off-target signal loss in HeLa-CEM21 co-culture – HeLa F-luc CTL cells, cherry-picked, counter-screen for HIV-1 Env fusion inhibitor project, dose response (AID 652040); format: functional, cell-based;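 note: potency for signal decrease marking cytotoxic or nonspecific inhibition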

T1 sequence (P33261 whole entry): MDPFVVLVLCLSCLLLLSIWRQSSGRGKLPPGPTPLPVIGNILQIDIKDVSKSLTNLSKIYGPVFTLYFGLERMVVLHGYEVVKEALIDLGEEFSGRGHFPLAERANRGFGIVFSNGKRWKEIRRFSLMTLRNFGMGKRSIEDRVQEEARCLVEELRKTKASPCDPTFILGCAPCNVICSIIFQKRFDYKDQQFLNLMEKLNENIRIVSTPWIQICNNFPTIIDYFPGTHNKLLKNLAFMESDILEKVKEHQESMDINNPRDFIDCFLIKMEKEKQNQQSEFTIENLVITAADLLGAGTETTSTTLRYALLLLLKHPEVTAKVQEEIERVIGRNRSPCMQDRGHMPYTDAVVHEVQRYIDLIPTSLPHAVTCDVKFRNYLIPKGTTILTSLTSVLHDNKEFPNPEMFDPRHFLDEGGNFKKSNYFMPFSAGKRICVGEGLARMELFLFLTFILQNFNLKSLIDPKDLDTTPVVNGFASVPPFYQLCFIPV

CCCCCCC(=O)Cc1cc(OC)c(OC)cc1C=C(C(=O)OCC)C(=O)OCC
AC50 [1]: 3.16 µM (inconclusive)

O=C1CCCC(=O)C1=NNc1cccc(C(=O)O)c1
IC50 [2]: 120 µM (active)

COc1ccc(/C=N/N=C2/SCC(=O)N2Cc2ccccc2)cc1
AC50 [3]: > 35 µM (active)
AC50 [4]: 164 µM (active)
EC50 [5]: 0.361 µM (active)
AC50 [6]: > 35 µM (active)
EC50 [7]: 0.335 µM (active)
EC50 [8]: 0.581 µM (active)
EC50 [9]: < 0.1 µM (active)
EC50 [10]: > 120 µM (not active)

O=C(NCc1ccccc1)c1cnc2ccc(S(=O)(=O)Nc3ccc4c(c3)OCCO4)cc2c1O
IC50 [11]: > 50 µM (not active)

CC(C)(C)/C(O)=C/c1nc2cc(Cl)ccc2oc1=O
IC50 [12]: 1.7 µM (active)

O=[N+]([O-])c1c(NCCO)cc(N2CCCCC2)c2nonc12
IC50 [13]: > 50 µM (not active)

Nc1nc(N)c2nc(-c3ccccc3)c(N)nc2n1
EC50 [14]: > 195 µM (not active)
IC50 [12]: 0.807 µM (active)
AC50 [15]: inactive

CC1=CC(C)(C)Nc2cc(C)c(C)cc21
IC50 [11]: > 50 µM (not active)

CCN(CC)c1ccc2c(c1)CCCN2
AC50 [16]: > 120 µM (inactive)
EC50 [17]: > 380 µM (inconclusive)
IC50 [18]: 48.6 µM (active)
CC50 [19]: > 40 µM (active)

N#Cc1ccsc1NC(=O)CSc1ncnc2ccccc12
IC50 [20]: < 0.023 µM (not active)
IC50 [21]: > 50 µM (not active)

COc1cc([C@@H]2Oc3cc([C@H]4Oc5cc(O)cc(O)c5C(=O)[C@H]4O)ccc3O[C@H]2CO)ccc1O
AC50 [1]: 15.8 µM (inconclusive)

O=C(Oc1ccc2c(c1)OCO2)c1cc2c(s1)CCC2
AC50 [22]: 10.4 µM (active)
EC50 [23]: > 260 µM (inactive)
AC50 [24]: 2.01 µM (active)
AC50 [25]: 3.31 µM (active)
IC50 [20]: < 0.023 µM (not active)
AC50 [26]: 7.2 µM (active)
AC50 [27]: 10.8 µM (active)
IC50 [21]: < 1.56 µM (active)
